Experiments:
Format in all cases: in vivo
[1] = system: velvetleaf (Abutilon theophrasti); test: Test G Post-Emergence Protocol; conditions: Abutilon theophrasti, post-emergence, 312 h; for pest or weed control at 15.625 g/ha: 15.625 g ai/ha, evaluated after 13 days (100=total damage to plant; 0=no damage to plant), read-out: Velvetleaf damage rating; for pest or weed control at 62.5 g/ha: 62.5 g ai/ha, read-out: Velvetleaf damage rating (100=total damage to plant; 0=no damage to plant); for pest or weed control at 62.5 g/ha / pest or weed control at 250 g/ha: evaluated after 13 days; for pest or weed control at 250 g/ha: 250 g ai/ha, read-out: damage to plant, Velvetleaf (100=total damage to plant; 0=no damage to plant)
How it was run: (§1)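 Eight days post-sowing, plants received a spray of test compound (acetone/water 50:50, 0.5% Tween 20) at 15.625, 62.5 or 250 g/ha. Glasshouse regime thereafter: 24/16 °C, 14 h light, 65% humidity. Assessment after 13 days on a 0–100 damage scale.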

[2] = system: giant foxtail (Setaria faberi); test: Test G Post-Emergence Protocol; conditions: Setaria faberi, post-emergence, 312 h; for pest or weed control at 15.625 g/ha: 15.625 g ai/ha, evaluated after 13 days (100=total damage to plant; 0=no damage to plant), read-out: Foxtail, Giant damage rating; for pest or weed control at 62.5 g/ha: 62.5 g ai/ha, read-out: Foxtail, Giant damage rating (100=total damage to plant; 0=no damage to plant); for pest or weed control at 62.5 g/ha / pest or weed control at 250 g/ha: evaluated after 13 days; for pest or weed control at 250 g/ha: 250 g ai/ha, read-out: damage to plant, Foxtail, Giant (100=total damage to plant; 0=no damage to plant)
How it was run: as §1

[3] = system: redroot pigweed (Amaranthus retroflexus); test: Test G Post-Emergence Protocol; conditions: Amaranthus retroflexus, post-emergence, 312 h; for pest or weed control at 15.625 g/ha: 15.625 g ai/ha, evaluated after 13 days (100=total damage to plant; 0=no damage to plant), read-out: Pigweed, Redroot damage rating; for pest or weed control at 62.5 g/ha: 62.5 g ai/ha, read-out: Pigweed, Redroot damage rating (100=total damage to plant; 0=no damage to plant); for pest or weed control at 62.5 g/ha / pest or weed control at 250 g/ha: evaluated after 13 days; for pest or weed control at 250 g/ha: 250 g ai/ha, read-out: damage to plant, Pigweed, Redroot (100=total damage to plant; 0=no damage to plant)
How it was run: as §1

[4] = system: barnyardgrass (Echinochloa crus-galli); test: Test G Post-Emergence Protocol; conditions: Echinochloa crus-galli, post-emergence, 312 h; for pest or weed control at 15.625 g/ha: 15.625 g ai/ha, evaluated after 13 days (100=total damage to plant; 0=no damage to plant), read-out: Barnyardgrass damage rating; for pest or weed control at 62.5 g/ha: 62.5 g ai/ha, read-out: Barnyardgrass damage rating (100=total damage to plant; 0=no damage to plant); for pest or weed control at 62.5 g/ha / pest or weed control at 250 g/ha: evaluated after 13 days; for pest or weed control at 250 g/ha: 250 g ai/ha, read-out: damage to plant, Barnyardgrass (100=total damage to plant; 0=no damage to plant)
How it was run: as §1

[5] = system: ivy-leaved morning glory (Ipomoea hederacea); test: Test G Post-Emergence Protocol; conditions: Ipomoea, post-emergence, 312 h; for pest or weed control at 15.625 g/ha: 15.625 g ai/ha, evaluated after 13 days (100=total damage to plant; 0=no damage to plant), read-out: Morningglory, Ivy-leaved damage rating; for pest or weed control at 62.5 g/ha: 62.5 g ai/ha, read-out: Morningglory, Ivy-leaved damage rating (100=total damage to plant; 0=no damage to plant); for pest or weed control at 62.5 g/ha / pest or weed control at 250 g/ha: evaluated after 13 days; for pest or weed control at 250 g/ha: 250 g ai/ha, read-out: damage to plant, Morningglory, Ivy-leaved (100=total damage to plant; 0=no damage to plant)
How it was run: as §1

[6] = system: corn (Zea mays); test: Test G Post-Emergence Protocol; conditions: Zea mays, post-emergence, 312 h; for plant injury at 15.625 g/ha: 15.625 g ai/ha, evaluated after 13 days (100=total damage to plant; 0=no damage to plant), read-out: Corn damage rating; for plant injury at 62.5 g/ha: 62.5 g ai/ha, read-out: Corn damage rating (100=total damage to plant; 0=no damage to plant); for plant injury at 62.5 g/ha / plant injury at 250 g/ha: evaluated after 13 days; for plant injury at 250 g/ha: 250 g ai/ha, read-out: damage to plant, Corn (100=total damage to plant; 0=no damage to plant)
How it was run: as §1

[7] = system: velvetleaf (Abutilon theophrasti); test: Test G Pre-Emergence Protocol; conditions: Abutilon theophrasti, pre-emergence, 312 h, evaluated after 13 days; for pest or weed control at 15.625 g/ha: 15.625 g ai/ha; for pest or weed control at 15.625 g/ha / pest or weed control at 250 g/ha: read-out: Velvetleaf damage rating (100=total damage to plant; 0=no damage to plant); for pest or weed control at 62.5 g/ha: 62.5 g ai/ha, 100=total damage to plant, 0=no damage to plant, read-out: plant damage rating, Velvetleaf; for pest or weed control at 250 g/ha: 250 g ai/ha
How it was run: (§2)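 Spraying took place one day after sowing, at 15.625, 62.5 or 250 g/ha, using an acetone/water (50:50) spray solution containing 0.5% Tween 20. Plants were kept under glasshouse conditions (24/16 °C, 14 h light, 65% humidity, watered twice daily), and injury was rated 0–100 at day 13.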

[8] = system: giant foxtail (Setaria faberi); test: Test G Pre-Emergence Protocol; conditions: Setaria faberi, pre-emergence, 312 h, evaluated after 13 days; for pest or weed control at 15.625 g/ha: 15.625 g ai/ha; for pest or weed control at 15.625 g/ha / pest or weed control at 250 g/ha: read-out: Foxtail, Giant damage rating (100=total damage to plant; 0=no damage to plant); for pest or weed control at 62.5 g/ha: 62.5 g ai/ha, 100=total damage to plant, 0=no damage to plant, read-out: plant damage rating, Foxtail, Giant; for pest or weed control at 250 g/ha: 250 g ai/ha
How it was run: as §2

[9] = system: redroot pigweed (Amaranthus retroflexus); test: Test G Pre-Emergence Protocol; conditions: Amaranthus retroflexus, pre-emergence, 312 h, evaluated after 13 days; for pest or weed control at 15.625 g/ha: 15.625 g ai/ha; for pest or weed control at 15.625 g/ha / pest or weed control at 250 g/ha: read-out: Pigweed, Redroot damage rating (100=total damage to plant; 0=no damage to plant); for pest or weed control at 62.5 g/ha: 62.5 g ai/ha, 100=total damage to plant, 0=no damage to plant, read-out: plant damage rating, Pigweed, Redroot; for pest or weed control at 250 g/ha: 250 g ai/ha
How it was run: as §2

[10] = system: barnyardgrass (Echinochloa crus-galli); test: Test G Pre-Emergence Protocol; conditions: Echinochloa crus-galli, pre-emergence, 312 h, evaluated after 13 days; for pest or weed control at 15.625 g/ha: 15.625 g ai/ha, read-out: Barnyard grass damage rating (100=total damage to plant; 0=no damage to plant); for pest or weed control at 62.5 g/ha: 62.5 g ai/ha, 100=total damage to plant, 0=no damage to plant, read-out: plant damage rating, Barnyardgrass; for pest or weed control at 250 g/ha: 250 g ai/ha, read-out: Barnyardgrass damage rating (100=total damage to plant; 0=no damage to plant)
How it was run: as §2

[11] = system: ivy-leaved morning glory (Ipomoea hederacea); test: Test G Pre-Emergence Protocol; conditions: Ipomoea, pre-emergence, 312 h, evaluated after 13 days; for pest or weed control at 15.625 g/ha: 15.625 g ai/ha, read-out: Morning-glory, Ivy-leaved damage rating (100=total damage to plant; 0=no damage to plant); for pest or weed control at 62.5 g/ha: 62.5 g ai/ha, 100=total damage to plant, 0=no damage to plant, read-out: plant damage rating, Morningglory, Ivy-leaved; for pest or weed control at 250 g/ha: 250 g ai/ha, read-out: Morningglory, Ivy-leaved damage rating (100=total damage to plant; 0=no damage to plant)
How it was run: as §2

[12] = system: corn (Zea mays); test: Test G Pre-Emergence Protocol; conditions: Zea mays, pre-emergence, 312 h, evaluated after 13 days; for plant injury at 15.625 g/ha: 15.625 g ai/ha; for plant injury at 15.625 g/ha / plant injury at 250 g/ha: read-out: Corn damage rating (100=total damage to plant; 0=no damage to plant); for plant injury at 62.5 g/ha: 62.5 g ai/ha, 100=total damage to plant, 0=no damage to plant, read-out: plant damage rating, Corn; for plant injury at 250 g/ha: 250 g ai/ha
How it was run: as §2

| Compound | pest or weed control at 15.625 g/ha [1] | pest or weed control at 62.5 g/ha [1] | pest or weed control at 250 g/ha [1] | pest or weed control at 15.625 g/ha [2] | pest or weed control at 62.5 g/ha [2] | pest or weed control at 250 g/ha [2] | pest or weed control at 15.625 g/ha [3] | pest or weed control at 62.5 g/ha [3] | pest or weed control at 250 g/ha [3] | pest or weed control at 15.625 g/ha [4] | pest or weed control at 62.5 g/ha [4] | pest or weed control at 250 g/ha [4] | pest or weed control at 15.625 g/ha [5] | pest or weed control at 62.5 g/ha [5] | pest or weed control at 250 g/ha [5] | plant injury at 15.625 g/ha [6] | plant injury at 62.5 g/ha [6] | plant injury at 250 g/ha [6] | pest or weed control at 15.625 g/ha [7] | pest or weed control at 62.5 g/ha [7] | further results |
| --- | --- | --- | --- | --- | --- | --- | --- | --- | --- | --- | --- | --- | --- | --- | --- | --- | --- | --- | --- | --- | --- |
| CN1C[C@@H](c2ccc(C(F)(F)F)cc2)[C@H](C(=O)Nc2ccc(F)c(F)c2Cl)C1=O (racemic) [Compound 1627] | 0% | 20% | 40% | 70% | 80% | 80% | 20% | 60% | 70% | 20% | 70% | 80% | 60% | 70% | 70% | 0% | 30% | 70% | 0% | 20% | pest or weed control at 250 g/ha [7]: 20%; pest or weed control at 15.625 g/ha [8]: 70%; pest or weed control at 62.5 g/ha [8]: 80%; pest or weed control at 250 g/ha [8]: 80%; pest or weed control at 15.625 g/ha [9]: 0%; pest or weed control at 62.5 g/ha [9]: 50%; pest or weed control at 250 g/ha [9]: 60%; pest or weed control at 15.625 g/ha [10]: 0%; pest or weed control at 62.5 g/ha [10]: 40%; pest or weed control at 250 g/ha [10]: 80%; pest or weed control at 15.625 g/ha [11]: 0%; pest or weed control at 62.5 g/ha [11]: 0%; pest or weed control at 250 g/ha [11]: 10%; plant injury at 15.625 g/ha [12]: 0%; plant injury at 62.5 g/ha [12]: 10%; plant injury at 250 g/ha [12]: 70% |
| CN1C[C@H](c2cccc(C#N)c2)[C@@H](C(=O)Nc2ccccc2F)C1=O (racemic) [Compound 1471] | 10% | 0% | 10% | 10% | 60% | 70% | 10% | 0% | 20% | 30% | 30% | 50% | 10% | 0% | 20% | 10% | 0% | 0% | 0% | 0% | pest or weed control at 250 g/ha [7]: 0%; pest or weed control at 15.625 g/ha [8]: 40%; pest or weed control at 62.5 g/ha [8]: 80%; pest or weed control at 250 g/ha [8]: 90%; pest or weed control at 15.625 g/ha [9]: 0%; pest or weed control at 62.5 g/ha [9]: 0%; pest or weed control at 250 g/ha [9]: 0%; pest or weed control at 15.625 g/ha [10]: 10%; pest or weed control at 62.5 g/ha [10]: 70%; pest or weed control at 250 g/ha [10]: 90%; pest or weed control at 15.625 g/ha [11]: 0%; pest or weed control at 62.5 g/ha [11]: 0%; pest or weed control at 250 g/ha [11]: 20%; plant injury at 15.625 g/ha [12]: 0%; plant injury at 62.5 g/ha [12]: 0%; plant injury at 250 g/ha [12]: 0% |
